# pIC50: −log10 of the molar value.
# System: pERK level in H358 cells
# Assay: pERK and ERK protein content assay in H358 cells (ELISA)
# Type: cell-based
# Settings: Homo sapiens, NCI-H358, compound 1 μM, 24 h, pERK/ERK ratio compared with DMSO group, read-out: Inhibition rate (%) of pERK level
# Procedure, shortened: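 Percent inhibition of pERK relative to DMSO, from the ELISA pERK/ERK ratio in lysed H358 cells. Compound applied at 1 μM for 24 h after one day of growth.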
row,Compound,inhibition at 1 µM [%]
1,C=CC(=O)N1CC2(CCN(c3nc(N4CC[C@@H](N5CC(F)(F)C5)C4)nc4c(OCC(F)(F)F)c(-c5c(C)ccc6[nH]ncc56)c(C5CC5)cc34)CC2)C1 [Compound 206],50 to 90
2,C=CC(=O)N1CC2(CCN(c3nc(N4CC[C@@H](N5CCCC5)C4)nc4c(OCC(F)(F)F)c(-c5c(C)ccc6[nH]ncc56)c(C5CC5)cc34)CC2)C1 [Compound 184],> 90
3,C=C(F)C(=O)N1CC2(CCN(c3nc(OC4CN5CCC4CC5)nc4c(OCC(F)(F)F)c(-c5c(C)ccc6[nH]ncc56)c(C5CC5)cc34)CC2)C1 (stereo not drawn) [Compound 151],> 90
4,C=CC(=O)N1CC2(CCN(c3nc(OC4CCN(CCOC)CC4)nc4c(OCC(F)(F)F)c(-c5ccc(F)cc5F)c(C5CC5)cc34)CC2)C1 [Compound 56],> 90
5,C=CC(=O)N1CC2(CCN(c3nc(OC4CC5(C4)CN(CCOC)C5)nc4c(OCC(F)(F)F)c(-c5c(C)ccc6[nH]ncc56)c(C5CC5)cc34)CC2)C1 [Compound 125],> 90
6,C=CC(=O)N1CC2(CCN(c3nc(OC4CCN(CCOC)CC4)nc4c(OCC(F)(F)F)c(-c5c(C)ccc6[nH]ncc56)c(F)cc34)CC2)C1 [Compound 11],> 90
7,C=CC(=O)N1CC2(CCN(c3nc(N4CC[C@@H](N5CC(OC)C5)C4)nc4c(OCC(F)(F)F)c(-c5c(C)ccc6[nH]ncc56)c(C5CC5)cc34)CC2)C1 [Compound 204],> 90
8,C=CC(=O)N1CC2(CCN(c3nc(N4CC[C@@H](N5CC[C@H](OC)C5)C4)nc4c(OCC(F)(F)F)c(-c5c(C)ccc6[nH]ncc56)c(C5CC5)cc34)CC2)C1 [Compound 196],> 90
9,C=CC(=O)N1CC2(CCN(c3nc(N4CC(N5CCC[C@@H]5C#N)C4)nc4c(OCC(F)(F)F)c(-c5c(C)ccc6[nH]ncc56)c(C5CC5)cc34)CC2)C1 [Compound 249],50 to 90
10,C=CC(=O)N1CC2(CCN(c3nc(N4CC(N5CCOCC5)C4)nc4c(OCC(F)(F)F)c(-c5c(C)ccc6[nH]ncc56)c(C5CC5)cc34)CC2)C1 [Compound 146],> 90
11,C=C(F)C(=O)N1CC2(CCN(c3nc(N4CCC5(CCN(CCOC)CC5)CC4)nc4c(OCC(F)(F)F)c(-c5c(C)ccc6[nH]ncc56)c(C5CC5)cc34)CC2)C1 [Compound 108],50 to 90
12,C=C(F)C(=O)N1CC2(CCN(c3nc(OC4CC5(CCN(CCOC)CC5)C4)nc4c(OCC(F)(F)F)c(-c5c(C)ccc6[nH]ncc56)c(C5CC5)cc34)CC2)C1 [Compound 132],> 90
13,C=CC(=O)N1CC2(CCN(c3nc(N4CC(N5CC[C@@H](C)C5)C4)nc4c(OCC(F)(F)F)c(-c5c(C)c(C)cc6[nH]ncc56)c(C5CC5)cc34)CC2)C1 [Compound 325],> 90
14,C=CC(=O)N1CC2(CCN(c3nc(N4CCC5(CCN(CCOC)C5)CC4)nc4c(OCC(F)(F)F)c(-c5c(C)ccc6[nH]ncc56)c(C5CC5)cc34)CC2)C1 [Compound 105],> 90
15,C=C(F)C(=O)N1CC2(CCN(c3nc(N4CCC5(CN(CCOC)C5)C4)nc4c(OCC(F)(F)F)c(-c5c(C)ccc6[nH]ncc56)c(C5CC5)cc34)CC2)C1 [Compound 100],> 90
16,C=CC(=O)N1CC2(CCN(c3nc(N4CC(N5CCC5)C4)nc4c(OCC(F)(F)F)c(-c5c(C)c(F)cc6[nH]ncc56)c(C5CC5)cc34)CC2)C1 [Compound 219],> 90
17,C=CC(=O)N1CC2(CCN(c3nc(N4CC5(C4)[C@@H](F)CCN5C)nc4c(OCC(F)(F)F)c(-c5c(C)ccc6[nH]ncc56)c(C5CC5)cc34)CC2)C1 [Compound 273],> 90
18,C=C(F)C(=O)N1CC2(CCN(c3nc(N4CC5(CN(C)C5)C4)nc4c(OCC(F)(F)F)c(-c5c(C)ccc6[nH]ncc56)c(C5CC5)cc34)CC2)C1 [Compound 70],> 90
19,C=CC(=O)N1CC2(CCN(c3nc(N4CC(N5C[C@@H](C)[C@@H](O)C5)C4)nc4c(OCC(F)(F)F)c(-c5c(C)ccc6[nH]ncc56)c(C5CC5)cc34)CC2)C1 [Compound 265],> 90
20,C=CC(=O)N1CC2(C1)CN(c1nc(OC3CCN(CCOC)CC3)nc3c(OCC(F)(F)F)c(-c4c(C)ccc5[nH]ncc45)c(C4CC4)cc13)C2 [Compound 26],50 to 90
21,C=CC(=O)N1CC2(CCN(c3nc(OC4CCN(CCOC)CC4)nc4c(OCC(F)(F)F)c(-c5c(C)ccc6[nH]ncc56)c(C(C)C)cc34)CC2)C1 [Compound 15],> 90

# System: H358 cells
# Assay: Antiproliferative activity against H358 cells (Cell Titer Glow, ultra-low attachment plate)
# Type: cell-based
# Settings: Homo sapiens, NCI-H358, 72 h, 96-well ultra-low attachment plate, three days after addition of compound, Cell Titer Glow
# Procedure: 2500 H358 cells were seeded in a 96-well ultra-low attachment plate (corning, 7007). After one day of growth, a serially diluted compound (a maximum concentration of 5 μM, 5-fold dilution, a total of five doses) was added. Three days after the addition of the compound, Cell Titer Glow (Promega, G9681) was added to evaluate pellet growth, and the IC50 value was calculated.
row,Compound,pIC50
1,C=CC(=O)N1CC2(CCN(c3nc(N4CC[C@@H](N5CCCC5)C4)nc4c(OCC(F)(F)F)c(-c5c(C)ccc6[nH]ncc56)c(C5CC5)cc34)CC2)C1 [Compound 184],> 6.52
2,C=C(F)C(=O)N1CC2(CCN(c3nc(OC4CN5CCC4CC5)nc4c(OCC(F)(F)F)c(-c5c(C)ccc6[nH]ncc56)c(C5CC5)cc34)CC2)C1 (stereo not drawn) [Compound 151],6.00 to 6.52
3,C=CC(=O)N1CC2(CCN(c3nc(OC4CCN(CCOC)CC4)nc4c(OCC(F)(F)F)c(-c5ccc(F)cc5F)c(C5CC5)cc34)CC2)C1 [Compound 56],> 6.52
4,C=CC(=O)N1CC2(CCN(c3nc(OC4CC5(C4)CN(CCOC)C5)nc4c(OCC(F)(F)F)c(-c5c(C)ccc6[nH]ncc56)c(C5CC5)cc34)CC2)C1 [Compound 125],> 6.52
5,C=CC(=O)N1CC2(CCN(c3nc(N4CC[C@@H](N5CC[C@H](OC)C5)C4)nc4c(OCC(F)(F)F)c(-c5c(C)ccc6[nH]ncc56)c(C5CC5)cc34)CC2)C1 [Compound 196],> 6.52
6,C=CC(=O)N1CC2(CCN(c3nc(N4CC(N5CCOCC5)C4)nc4c(OCC(F)(F)F)c(-c5c(C)ccc6[nH]ncc56)c(C5CC5)cc34)CC2)C1 [Compound 146],> 6.52
7,C=C(F)C(=O)N1CC2(CCN(c3nc(N4CCC5(CCN(CCOC)CC5)CC4)nc4c(OCC(F)(F)F)c(-c5c(C)ccc6[nH]ncc56)c(C5CC5)cc34)CC2)C1 [Compound 108],6.00 to 6.52
8,C=CC(=O)N1CC2(CCN(c3nc(N4CC(N5CC[C@@H](C)C5)C4)nc4c(OCC(F)(F)F)c(-c5c(C)c(C)cc6[nH]ncc56)c(C5CC5)cc34)CC2)C1 [Compound 325],> 6.52
9,C=CC(=O)N1CC2(CCN(c3nc(N4CCC5(CCN(CCOC)C5)CC4)nc4c(OCC(F)(F)F)c(-c5c(C)ccc6[nH]ncc56)c(C5CC5)cc34)CC2)C1 [Compound 105],> 6.52
10,C=C(F)C(=O)N1CC2(CCN(c3nc(N4CCC5(CN(CCOC)C5)C4)nc4c(OCC(F)(F)F)c(-c5c(C)ccc6[nH]ncc56)c(C5CC5)cc34)CC2)C1 [Compound 100],> 6.52
11,C=CC(=O)N1CC2(CCN(c3nc(N4CC(N5CCC5)C4)nc4c(OCC(F)(F)F)c(-c5c(C)c(F)cc6[nH]ncc56)c(C5CC5)cc34)CC2)C1 [Compound 219],> 6.52
12,C=CC(=O)N1CC2(CCN(c3nc(N4CC(N5C[C@@H](C)[C@@H](O)C5)C4)nc4c(OCC(F)(F)F)c(-c5c(C)ccc6[nH]ncc56)c(C5CC5)cc34)CC2)C1 [Compound 265],> 6.52
13,C=CC(=O)N1CC2(C1)CN(c1nc(OC3CCN(CCOC)CC3)nc3c(OCC(F)(F)F)c(-c4c(C)ccc5[nH]ncc45)c(C4CC4)cc13)C2 [Compound 26],6.00 to 6.52
14,C=CC(=O)N1CC2(CCN(c3nc(OC4CCN(CCOC)CC4)nc4c(OCC(F)(F)F)c(-c5c(C)ccc6[nH]ncc56)c(C(C)C)cc34)CC2)C1 [Compound 15],> 6.52

# Now from value to compound:
row,pIC50,Compound
1,6.00 to 6.52,C=CC(=O)N1CC2(CCN(c3nc(N4CC[C@@H](N5CC(F)(F)C5)C4)nc4c(OCC(F)(F)F)c(-c5c(C)ccc6[nH]ncc56)c(C5CC5)cc34)CC2)C1 [Compound 206]
2,> 6.52,C=CC(=O)N1CC2(CCN(c3nc(OC4CCN(CCOC)CC4)nc4c(OCC(F)(F)F)c(-c5c(C)ccc6[nH]ncc56)c(F)cc34)CC2)C1 [Compound 11]
3,6.00 to 6.52,C=CC(=O)N1CC2(CCN(c3nc(N4CC[C@@H](N5CC(OC)C5)C4)nc4c(OCC(F)(F)F)c(-c5c(C)ccc6[nH]ncc56)c(C5CC5)cc34)CC2)C1 [Compound 204]
4,6.00 to 6.52,C=CC(=O)N1CC2(CCN(c3nc(N4CC(N5CCC[C@@H]5C#N)C4)nc4c(OCC(F)(F)F)c(-c5c(C)ccc6[nH]ncc56)c(C5CC5)cc34)CC2)C1 [Compound 249]
5,> 6.52,C=C(F)C(=O)N1CC2(CCN(c3nc(OC4CC5(CCN(CCOC)CC5)C4)nc4c(OCC(F)(F)F)c(-c5c(C)ccc6[nH]ncc56)c(C5CC5)cc34)CC2)C1 [Compound 132]
6,> 6.52,C=CC(=O)N1CC2(CCN(c3nc(N4CC5(C4)[C@@H](F)CCN5C)nc4c(OCC(F)(F)F)c(-c5c(C)ccc6[nH]ncc56)c(C5CC5)cc34)CC2)C1 [Compound 273]
7,6.00 to 6.52,C=C(F)C(=O)N1CC2(CCN(c3nc(N4CC5(CN(C)C5)C4)nc4c(OCC(F)(F)F)c(-c5c(C)ccc6[nH]ncc56)c(C5CC5)cc34)CC2)C1 [Compound 70]
